Results: PubChem BioAssay (NCI)
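Cells were grown in 96-well plates and exposed to each compound for 48 hours at five concentrations; endpoints were interpolated linearly between bracketing concentrations, or set to the highest concentration if not reached. GI50 marks 50% less growth. Definition used: TGI = concentration required for complete inhibition of growth.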

Columns and labels:
Assay in all cases: NCI tumour cell line growth inhibition, 48 h
SK-OV-3 ovarian = tested on: SK-OV-3 ovarian
DU-145 prostate = tested on: DU-145 prostate
RXF 393 renal = tested on: RXF 393 renal
SK-MEL-5 melanoma = tested on: SK-MEL-5 melanoma
SF-295 CNS = tested on: SF-295 CNS
SW-620 colon = tested on: SW-620 colon
K-562 leukemia = tested on: K-562 leukemia
OVCAR-3 ovarian = tested on: OVCAR-3 ovarian
OVCAR-4 ovarian = tested on: OVCAR-4 ovarian

Compound | TGI (SK-OV-3 ovarian) [µM] | TGI (DU-145 prostate) [µM] | TGI (RXF 393 renal) [µM] | TGI (SK-MEL-5 melanoma) [µM] | TGI (SF-295 CNS) [µM] | TGI (SW-620 colon) [µM] | TGI (K-562 leukemia) [µM] | TGI (OVCAR-3 ovarian) [µM] | TGI (OVCAR-4 ovarian) [µM] | GI50 (SK-OV-3 ovarian) [µM] | GI50 (DU-145 prostate) [µM] | GI50 (RXF 393 renal) [µM] | GI50 (SF-295 CNS) [µM] | GI50 (SW-620 colon) [µM] | GI50 (K-562 leukemia) [µM] | GI50 (OVCAR-3 ovarian) [µM] | GI50 (OVCAR-4 ovarian) [µM]
C/C(=N/NC(=S)N1CCN(C(=S)N/N=C(/C)c2ccccn2)CC1)c1ccccn1 | > 100 | > 95.5 | 41.4 | > 80.7 | > 100 | > 100 | > 100 | > 100 | > 100 | – | – | – | – | – | – | – | –
Cc1cc2nc(-c3c(N)ncc(C#N)c3-c3ccc(Cl)cc3)[nH]c2cc1C | 27.9 | 27.1 | 13.7 | 33.4 | 27.5 | > 100 | > 100 | 76 | 25.4 | 11.9 | 5.68 | 3.18 | 10 | 32.4 | 31.5 | 13.9 | 4.4
O=[N+]([O-])c1ccc2c(c1)n1c(N3CCCC3)[n+]3ccccc3c1c1c3cccc[n+]3c(N3CCCC3)n21 | – | > 100 | > 100 | > 100 | > 100 | > 100 | 88.2 | > 100 | > 100 | – | – | – | – | – | – | – | –
COc1ccccc1NC(=S)N/N=C/c1ccccn1 | 34.8 | 19 | 94.1 | 2.71 | > 31.6 | > 46.4 | > 31.6 | – | > 100 | – | – | – | – | – | – | – | –
Clc1nc2c(C#Cc3ccccc3)ncnc2n1C1CCCCO1 (stereo not drawn) | > 100 | 63.2 | 26.9 | 24.8 | 54.4 | 55.3 | > 100 | 30.4 | 35.9 | – | – | – | – | – | – | – | –
COc1cc(S(=O)(=O)Nc2ccc(-c3csc(/N=C\c4ccccc4)n3)cc2)ccc1Cl | > 100 | > 100 | > 100 | > 100 | > 100 | > 100 | > 100 | > 100 | > 100 | – | – | – | – | – | – | – | –
O=[N+]([O-])c1cc(F)ccc1Sc1ccccc1 | > 10 | > 10 | > 10 | > 10 | > 10 | > 10 | > 10 | > 10 | > 10 | – | – | – | – | – | – | – | –
COc1cc(CNC(=S)CCCCCCCCCCC(C)C)ccc1O | > 100 | > 100 | > 100 | > 100 | > 100 | > 100 | > 100 | – | > 100 | – | – | – | – | – | – | – | –
C=C(C)[C@@H]1CC[C@]2(CO)CC[C@]3(C)[C@H](CC[C@@H]4[C@@](C)(CCCN)[C@H](C(=C)C)CC[C@]43C)[C@@H]12 | 3.18 | 3.06 | – | – | – | 3.51 | 4.59 | 2.96 | – | 1.71 | 1.68 | – | – | 1.75 | 1.55 | 1.59 | –
N#C/C(C(=O)Nc1ccccc1)=C(/N)N1CCCCC1 | > 100 | > 100 | – | > 100 | > 100 | > 100 | > 100 | > 100 | – | – | – | – | – | – | – | – | –
COC(=O)c1cc(C)ccc1/C=C1\Cc2c(C)cc(C)cc2C1=O | – | > 100 | 44.5 | > 100 | 33.1 | > 100 | > 100 | > 100 | > 100 | – | – | – | – | – | – | – | –
C=CC(OC(C)=O)c1ccc(OC(C)=O)cc1 (stereo not drawn) | 32.6 | 27.1 | 28.1 | 28.7 | 22.1 | – | > 100 | 16.4 | 37.5 | – | – | – | – | – | – | – | –
O=C(O)COc1cc(-c2ccccc2)nc2ccccc12 | > 100 | > 100 | – | > 100 | > 100 | > 100 | > 100 | > 100 | > 100 | – | – | – | – | – | – | – | –
CC(C)(CN1CCCCC1)C(/C=C/c1ccccc1)=N\NC(=O)N/N=C(/C=C/c1ccccc1)C(C)(C)CN1CCCCC1 | 9.52 | – | – | 3.1 | 3.09 | 3.13 | 2.81 | 6.82 | 14.1 | – | – | – | – | – | – | – | –
Cc1nc(Nc2nc3ccccc3[nH]2)nc(Cl)c1CCCl | – | > 100 | – | > 100 | – | > 100 | > 100 | – | > 100 | – | – | – | – | – | – | – | –
CN(C)CCNC(=O)c1cc(NC(=O)c2cc(NC(=O)CC/C=C3/[C@@H]4CC[C@H]3N=N4)cn2C)cn1C | – | > 100 | > 100 | > 100 | > 100 | > 100 | > 100 | > 100 | > 100 | – | – | – | – | – | – | – | –
